Test results published in patent US11065266B2, “Method of treating melanoma using an inhibitor of an atypical protein kinase C” (UNIVERSITY OF SOUTH FLORIDA, priority 2016, dated 2021).

Key:
MeWo cells = assay: WST-1 assay for cell viability and cytotoxicity; assay type: cell-based, human; conditions: treated at IC50, 3 days
Method: Approximately 4×10^3 cells (PCS-200-013, SK-MEL-2 and MeWo) were cultured in a 96 well plate. […] This IC50 was obtained based on the cell viability counts in the previous experiments. Additional doses of sterile water or inhibitor were supplied every 24 h during 3 day incubation period. At the end of 3 day treatment, media were removed and fresh media (100 μL) were added with 4-[3-(4-iodophenyl)-2-(4-nitropheny))-2H-5-tetrazolio]-1,3-benzene disulfonate (WST-1) reagent (10 μL) to each well. The absorbance was measured at 450 nm for every 0.5 hour up to 3 hours using the Synergy HT microplate reader from Biotek (Winooski, Vt.).
WST-1 assay was performed to determine the in-vitro cytotoxicity of ACPD and DNDA on normal and malignant cell lines. Measured absorbance at 450 nm is directly proportional to the number of cells present. Cells produce a water soluble formazan with WST-1 as a result of their mitochondrial dehydrogenase activity. WST-1 assay is preferred over 3-(4,S-Dimethyl-2-thiazolyl)-2, 5-diphenyl-2Htetrazolium bromide (MTT) test since MTT needs to add acidic isopropanol to dissolve formazan which gives an additional toxicity to cells.

[1] = system: malignant melanoma cell lines (SK-MEL-2 and MeWo); assay: Western blot of ζ-Stat treated samples; assay type: cell-based, human
Method: The change of levels of phosphorylated PKC-ι, total PKC-ι (FIG. 18A) and change of levels of phosphorylated PKC-ζ, total PKC-ζ (FIG. 18B) are shown for the ζ-Stat treated (2.5 μM) samples of malignant melanoma cell lines (SK-MEL-2 and MeWo) after the end of 3rd day of treatments. β-actin was used as the internal loading control in each Western blot. Whole cell lysate of 40 μg was separated on 7.5% SDS-PAGE and the Western blots of above proteins were obtained. N=3 experiments were performed in each case.

Compound | WST-1 absorbance at 450 nm, effect (MeWo cells) | apoptosis of malignant melanoma cells [1] | phosphorylated PKC-ι level ([1]; 2.5 μM, end of 3rd day) | reduction of pPKC-ζ level ([1]; 2.5 μM, end of 3rd day) [%] | reduction of total PKC-ζ level ([1]; 2.5 μM, end of 3rd day) [%] | total PKC-ι protein level ([1]; 2.5 μM, end of 3rd day)
CC(=O)C1=C(O)CCC1=O [ACPD, 2-acetyl-1,3-cyclopentanedione] | did not show a significant effect |  |  |  |  | 
O=S(=O)(O)c1cc(O)c2c(S(=O)(=O)O)cc(S(=O)(=O)O)cc2c1 [ζ-Stat, 8-hydroxy-1,3,6-naphthalenetrisulfonic acid] |  | induces the apoptosis | did not change significantly | 37 | 42 | did not change significantly
